# Source: publication PMC6271395, “Synthesis and Biological Activities of Some New (N^α-Dinicotinoyl)-bis-L-Leucyl Linear and Macrocyclic Peptides” (Molecules, 2014)
# What was measured:
# [1] = system: Escherichia coli; assay: Agar diffusion antimicrobial test, Escherichia coli; format: cell-based; details: Gram−ve, modified Kirby–Bauer disk diffusion, 10 µg/mL
# Protocol: (§1) The newly synthesized compounds 3–12 were tested for their preliminary antimicrobial activity against different microorganisms representing Gram-positive (Bacillus subtilis, Bacillus aureus and Staphylococcus aureus), Gram-negative bacteria (Escherichia coli), yeast (Candida albican) and fungi (Aspergillus niger).
# (§2) The antimicrobial activities of the synthesized compounds were determined by the agar diffusion method as recommended by the national committee for clinical laboratory standards (NCCLS). The concentrations of the tested compounds (10 µg/mL) were used according to modified Kirby–Bauer’s disk diffusion method. The degree of inhibition is measured in comparison with that of chloramphinicol and fusidic acid taken as standards.
# [2] = system: Aspergillus niger; assay: Agar diffusion antimicrobial test, Aspergillus niger; format: cell-based; details: Fungi, modified Kirby–Bauer disk diffusion, 10 µg/mL
# Protocol: as §1, §2
# [3] = system: Staphylococcus aureus; assay: Agar diffusion antimicrobial test, Staphylococcus aureus; format: cell-based; details: Gram+ve, modified Kirby–Bauer disk diffusion, 10 µg/mL
# Protocol: as §1, §2
# [4] = system: Bacillus aureus; assay: Agar diffusion antimicrobial test, Bacillus aureus; format: cell-based; details: Gram+ve, modified Kirby–Bauer disk diffusion, 10 µg/mL
# Protocol: as §1, §2
# [5] = system: Bacillus subtilis; assay: Agar diffusion antimicrobial test, Bacillus subtilis; format: cell-based; details: Gram+ve, modified Kirby–Bauer disk diffusion, 10 µg/mL
# Protocol: as §1, §2
# [6] = system: Candida albicans; assay: Agar diffusion antimicrobial test, Candida albicans; format: cell-based; details: Yeast, modified Kirby–Bauer disk diffusion, 10 µg/mL
# Protocol: as §1, §2
# [7] = system: carrageenan-induced edema; assay: Carrageenan-induced edema (rat paw test); format: in vivo; details: one hour before carrageenan, male albino rats, eight animals per group, paws excised four hours after drug administration
# Protocol: (§3) For the determination of the antiphlogistic potency of the synthesized compounds, two standard tests were realized at a dose level 2.5 and 5 mg/kg body weight of the rats, namely the protection against carrageenan-induced edema according to Winter et al. and the inhibition of plasma PGE2. The latter is known as a good confirming indicator for carrageenan-induced rat paw edema. […] For these compounds, a similar activity profile was realized for the inhibition of plasma PGE2.
# (§4) Groups of adult male albino rats (150–180 g), each of eight animals were orally dosed with tested compounds at a dose level of 2.5–5 mg/kg one hour before carrageenan challenge. Foot paw edema was induced by subplantar injection of 0.05 cm^3 of a 1% suspension of carrageenan in saline into the plantar tissue of one hind paw. An equal volume of saline was injected to the other hand paw and served as control. Four hours after drug administration the animals were decapitated, blood was collected, and the paws were rapidly excised. The average weight of edema was examined for the treated as well as the control group and the percentage inhibition of weight of edema was also evaluated. Diclofenac potassium (5 mg/kg) was employed as standard reference against which the tested compounds were compared (Table 2).
# [8] = system: plasma PGE2; assay: Inhibition of plasma PGE2 (EIA) in carrageenan-challenged rats; format: in vivo, rat; details: rats n = 8, blood four hours after drug administration, PGE2 EIA kit
# Protocol: as §3, §4
# Heparinized blood samples were collected from rats (n = 8), plasma was separated by centrifugation at 12,000 g for 2 min at […], immediately frozen, and stored at […] until use. The design correlate EIA prostaglandin E2 (PGE2) kit (Aldrich, Steinheim, Germany) is a competitive immuno assay for the quantitative determination of PGE2 in biological fluids. The kit uses a monoclonal antibody to PGE2 to bind, in a competitive manner, the PGE2 in the sample after a simultaneous incubation at room temperature. The excess reagents were washed away and the substrate was added, after a short incubation time the enzyme reaction was stopped, and the yellow color generated was read on a microplate reader DYNATech, MR 5000 at 405 nm (Dynatech Industries Inc., McLean, VA, USA). The intensity of the bound yellow color is inversely proportional to the concentration of PGE2 in either standard or samples.
Compound,"Inhibition Zome, Escherichia coli [1] [cm]","Inhibition Zome, Aspergillus niger [2] [cm]","Inhibition Zome, Staphylococcus aureus [3] [cm]","Inhibition Zome, Bacillus aureus [4] [cm]","Inhibition Zome, Bacillus subtilis [5] [cm]","Inhibition Zome, Candida albicans [6] [cm]",% Protection against Edema ([7]; dose 2.5 mg/kg oral) [%],% Protection against Edema ([7]; dose 5.0 mg/kg oral) [%],% Inhibition of Plasma PGE2 ([8]; dose 2.5 mg/kg oral) [%],% Inhibition of Plasma PGE2 ([8]; dose 5.0 mg/kg oral) [%]
"2,6-Bis {N-[1-{(2E)-2-[1-(4-nitrophenyl)ethylidene]hydrazinyl}-4-methyl-1-oxopentan]-3-carboxamido}pyridine [Compound 9c]",0.60,1.76,1.66,1.22,1.72,,,,,
"2,6-Bis {N-{(2R)-1-[2-(4-chlorobenzylidene)hydrazinyl]-4-methyl-1-oxopentan]-3-carboxamido}-pyridine [Compound 10e]",0.78,1.48,1.80,1.96,1.65,0.94,,,,
"2,6-Bis {N-{(2R)-1-[2-(4-methoxybenzylidene)hydrazinyl]-4-methyl-1-oxopentan]-3-carboxamido}-pyridine [Compound 10c]",0.80,1.95,1.64,1.56,1.76,1.00,,,,
"2,6-Bis {N-{(2R)-1-[2-(4-methylbenzylidene)hydrazinyl]-4-methyl-1-oxopentan]-3-carboxamido}-pyridine [Compound 10b]",0.78,1.56,1.85,1.95,1.80,0.95,,,,
"2,6-Bis[(N-[4-methyl-1-(4,5,6,7-tetrachloro-1H-isoindole-1,3(2H)-dion)-pentan]-3-carboxamido]-pyridine [Compound 7b]",0.66,1.95,1.45,1.80,1.46,,,,,
"O=C(N[C@H](CO)[C@H](O)c1ccc([N+](=O)[O-])cc1)C(Cl)Cl [Chloramphenicol, reference compound]",0.95,,2.00,2.10,2.00,,,,,
"COC(=O)[C@H](CC(C)C)NC(=O)c1cncc(C(=O)N[C@@H](CC(C)C)C(=O)OC)c1 [Compound 3, 3,5-Bis-(Methyl L-Leucenylcarbonyl)pyridine carboxylate]",0.62,1.78,1.76,1.65,1.46,,86.16 ± 0.052,98.18 ± 0.053,59.45 ± 0.050,81.10 ± 0.056
"CC(C)C[C@H](NC(=O)c1cncc(C(=O)N[C@@H](CC(C)C)C(=O)O)c1)C(=O)O [Compound 5, N,N′-Bis(1-Carboxy-2-L-leucyl)-3,5-(diaminocarbonyl)pyridine]",0.64,1.72,1.76,1.14,1.68,,85.14 ± 0.056,96.18 ± 0.067,61.16 ± 0.041,77.14 ± 0.036
"COC(=O)[C@@H]1CCCCNC(=O)[C@H](CC(C)C)NC(=O)c2cncc(c2)C(=O)N[C@@H](CC(C)C)C(=O)N1 [Compound 6, Cyclo-(Na-dinicotinoyl)-bis-(L-leucyl)-L-lysine methyl ester]",0.65,1.75,1.54,1.50,1.82,,92.14 ± 0.076,99.08 ± 0.062,84.18 ± 0.052,86.01 ± 0.030
CC(C)C[C@H](NC(=O)c1cncc(C(=O)N[C@@H](CC(C)C)C(=O)N/N=C/c2ccccc2)c1)C(=O)N/N=C/c1ccccc1 [Compound 10a],0.66,1.68,1.56,1.45,1.56,,90.32 ± 0.035,99.10 ± 0.036,62.12 ± 0.051,83.01 ± 0.049
CC(C)C[C@@H]1NC(=O)c2cncc(c2)C(=O)N[C@@H](CC(C)C)C(=O)NN2C(=O)c3ccc4c5c(ccc(c35)C2=O)C(=O)N(NC(=O)[C@H](CC(C)C)NC(=O)c2cncc(c2)C(=O)N[C@@H](CC(C)C)C(=O)NN2C(=O)c3ccc5c6c(ccc(c36)C2=O)C(=O)N(NC1=O)C5=O)C4=O [Compound 12],0.64,1.58,1.65,1.83,1.65,,90.48 ± 0.090,99.36 ± 0.080,63.16 ± 0.036,86.18 ± 0.071
"O=C([O-])Cc1ccccc1Nc1c(Cl)cccc1Cl.[K+] [Diclofenac Potassium, reference compound]",,,,,,,70.14 ± 0.064,75.23 ± 0.083,54.00 ± 0.041,70.00 ± 0.051
"CC(=O)O[C@H]1C[C@@]2(C)[C@@H](C[C@@H](O)[C@H]3[C@@]4(C)CC[C@@H](O)[C@@H](C)[C@@H]4CC[C@@]32C)/C1=C(\CCC=C(C)C)C(=O)O [Fusidic Acid, reference compound]",,1.9,,,,1.9,,,,
